The results in this text go back to patent US8471063B2, “Michael systems as transglutaminase inhibitors” (Zedira GmbH, priority 2006, dated 2013).

SMILES strings stand for the structures. Where a SMILES comes first, the peptide text is derived from it. [ ]: non-standard residue; d: D form. The star is where a group is joined. Nle(5E-ene,6-CO2Et) = CCOC(=O)/C=C/CC[C@H](N)C(=O)O; Cbz = O=C(OCc1ccccc1)*

Holding throughout (type): biochemical
Experiment [1] concerns the target T1, recombinant human tissue transglutaminase (His6-rh-TG2) (Homo sapiens, UniProt P21980).
T1 sequence (P21980 1-687): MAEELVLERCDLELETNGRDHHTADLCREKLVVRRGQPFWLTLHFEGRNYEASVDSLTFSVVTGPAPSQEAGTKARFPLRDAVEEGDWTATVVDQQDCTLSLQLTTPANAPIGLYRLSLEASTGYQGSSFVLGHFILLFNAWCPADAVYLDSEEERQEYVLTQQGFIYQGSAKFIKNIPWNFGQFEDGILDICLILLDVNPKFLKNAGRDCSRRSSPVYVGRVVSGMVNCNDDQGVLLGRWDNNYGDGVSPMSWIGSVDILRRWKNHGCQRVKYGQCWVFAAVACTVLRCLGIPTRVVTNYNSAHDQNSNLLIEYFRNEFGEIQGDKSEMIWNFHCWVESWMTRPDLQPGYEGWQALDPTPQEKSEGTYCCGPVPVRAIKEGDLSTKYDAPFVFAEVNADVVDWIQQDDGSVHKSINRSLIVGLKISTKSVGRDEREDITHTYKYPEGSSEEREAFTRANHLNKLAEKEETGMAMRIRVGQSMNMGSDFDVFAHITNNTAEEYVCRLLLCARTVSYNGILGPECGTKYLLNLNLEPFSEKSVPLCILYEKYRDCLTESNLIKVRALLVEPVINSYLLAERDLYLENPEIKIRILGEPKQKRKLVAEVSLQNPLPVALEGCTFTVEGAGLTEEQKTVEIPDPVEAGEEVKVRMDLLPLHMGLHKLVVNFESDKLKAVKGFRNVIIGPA
Put plainly: Inactivation of human tissue transglutaminase, fluorescence assay, IC50. The following applies: 5 min preincubation, 37° C. The method, then: 250 μg of lyophilized his-tagged recombinant human tissue transglutaminase (His6-rh-TG2) are reconstituted by the addition of 150 μl of water (resulting buffer 50 mM of NaH2PO4, 150 mM of NaCl, pH=8).
A 10 mM inhibitor stock solution in DMSO is prepared and diluted with buffer (50 mM of Tris-HCl, 10 mM of CaCl2, 5 mM of DTT, pH=7.5, respectively) to the 20-fold of the concentration desired for the inhibition mixture (at least 1/50 dilution resulting in 2% DMSO concentration).
900 μl of an assay solution composed of 55.56 mM of Tris, 11.11 mM of CaCl2, 0.11% PEG8000, 5.56 mM of DTT, 5.56 mM of glycine methyl ester and 50 μM of Abz-APE(CAD-DNP)QEA-OH, (patent number:), pH=7.5 are placed in a cuvette and brought to a temperature of 37° C. in the measuring cell of a spectrophotometer. 50 μl of the respective inhibitor solution are added to said solution (resulting in a concentration of less than 0.2% of DMSO in the mixture).
7 μl of the transglutaminase solution reconstituted above are diluted with 51 μl of buffer (50 mM of Tris, 100 mM of NaCl, 5 mM of DTT, pH=7.5). 50 μl of said enzyme solution (10 μg His6-rhTG2) are added to the assay solution containing the respective inhibitor concentration. The mixture is incubated for 5 min at 37° C. before the measurement is performed. λexc=313 nm and λem=418 nm, 15 min)
The resulting enzyme activity was measured by analyzing the slope of the straight line obtained by the increase in fluorescence.
DMSO is used instead of inhibitor stock solution in order to determine the non-inhibited enzyme activity. IC50 values are determined by plotting the resulting enzyme activity against the logarithm of the inhibitor concentration. IC50 is defined as the concentration of an inhibitor at which enzyme activity is reduced to 50% after 5 min of preincubation.

The target of a further experiment is T2, FXIII (Homo sapiens, UniProt P00488).
T2 sequence (P00488 1-732): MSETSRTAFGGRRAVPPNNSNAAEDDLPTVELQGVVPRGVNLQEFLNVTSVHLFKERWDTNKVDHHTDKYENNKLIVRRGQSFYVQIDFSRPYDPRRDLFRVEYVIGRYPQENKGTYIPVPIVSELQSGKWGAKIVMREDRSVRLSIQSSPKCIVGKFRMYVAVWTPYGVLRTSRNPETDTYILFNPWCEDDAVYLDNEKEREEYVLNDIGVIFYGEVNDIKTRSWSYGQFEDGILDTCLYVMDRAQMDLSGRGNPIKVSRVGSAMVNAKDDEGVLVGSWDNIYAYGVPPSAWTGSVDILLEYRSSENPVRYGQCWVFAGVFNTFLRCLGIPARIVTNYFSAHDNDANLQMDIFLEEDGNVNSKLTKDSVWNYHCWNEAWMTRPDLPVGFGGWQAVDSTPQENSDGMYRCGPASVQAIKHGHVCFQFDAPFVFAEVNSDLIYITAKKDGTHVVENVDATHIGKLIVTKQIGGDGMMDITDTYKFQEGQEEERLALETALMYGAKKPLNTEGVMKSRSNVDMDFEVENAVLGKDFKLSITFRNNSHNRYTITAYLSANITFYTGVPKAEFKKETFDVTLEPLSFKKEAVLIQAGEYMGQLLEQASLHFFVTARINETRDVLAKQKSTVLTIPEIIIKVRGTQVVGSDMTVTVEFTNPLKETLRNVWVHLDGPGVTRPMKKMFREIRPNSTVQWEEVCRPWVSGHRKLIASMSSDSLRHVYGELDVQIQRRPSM
Briefly: Transglutaminase inhibition, IC50 at FXIII.

Another experiment has as its target T3, TG1 (Homo sapiens, UniProt P22735).
T3 sequence (P22735 1-817): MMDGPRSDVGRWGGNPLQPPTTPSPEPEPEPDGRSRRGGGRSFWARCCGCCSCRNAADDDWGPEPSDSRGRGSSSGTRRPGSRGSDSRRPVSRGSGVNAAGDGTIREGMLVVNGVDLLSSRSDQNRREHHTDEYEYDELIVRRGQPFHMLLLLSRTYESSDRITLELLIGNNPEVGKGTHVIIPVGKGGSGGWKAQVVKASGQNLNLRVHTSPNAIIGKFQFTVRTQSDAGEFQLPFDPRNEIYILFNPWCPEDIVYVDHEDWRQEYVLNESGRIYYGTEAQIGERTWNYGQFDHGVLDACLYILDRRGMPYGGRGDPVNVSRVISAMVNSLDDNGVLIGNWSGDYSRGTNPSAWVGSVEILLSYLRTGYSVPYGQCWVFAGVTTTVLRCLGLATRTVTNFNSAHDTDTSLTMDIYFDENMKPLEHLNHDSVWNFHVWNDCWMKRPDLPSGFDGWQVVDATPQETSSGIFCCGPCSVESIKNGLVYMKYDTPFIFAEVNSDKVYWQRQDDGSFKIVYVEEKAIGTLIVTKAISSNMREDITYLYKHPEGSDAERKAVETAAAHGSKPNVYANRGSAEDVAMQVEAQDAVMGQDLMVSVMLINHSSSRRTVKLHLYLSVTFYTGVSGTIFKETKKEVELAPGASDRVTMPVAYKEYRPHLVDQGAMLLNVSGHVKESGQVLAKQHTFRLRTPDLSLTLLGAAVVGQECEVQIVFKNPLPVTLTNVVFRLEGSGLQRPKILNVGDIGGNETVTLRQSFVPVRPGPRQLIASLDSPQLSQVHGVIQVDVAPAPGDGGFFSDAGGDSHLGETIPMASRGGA
Put plainly: Transglutaminase inhibition, IC50 at TG1.

For `CCOC(=O)/C=C/CC[C@H](NC(=O)OCc1ccccc1)C(=O)N[C@@H](CCC(N)=O)C(=O)N1CCC[C@H]1C(=O)N[C@@H](CC(C)C)C(=O)OC` [Compound 2, N^α-benzyloxycarbonyl-{[(E)-(L)-6-amino-hept-2-ene-dicarboxylic acid]-1-ethanoyl}-L-glutaminyl-L-prolinyl-L-leucine methyl ester] (Cbz-[Nle(5E-ene,6-CO2Et)]QPL-OMe), the IC50 in experiment [1] (Table 1) is 0.02 µM; against FXIII (Table 1), over 50 µM.

Regarding `CCOC(=O)/C=C/CC[C@H](NC(=O)OCc1ccccc1)C(=O)N[C@@H](Cc1ccccc1)C(=O)OC` [Compound 3, N^α-benzyloxycarbonyl-{[(E)-(L)-6-amino-hept-2-ene-dicarboxylic acid]-1-ethanoyl}-L-phenylalanine methyl ester], the half-inhibitory concentration (IC50) was determined as 8 µM in experiment [1] (Table 1), 2.5 µM at FXIII (Table 1) and 0.2 µM against TG1 (Table 1).

As for `COC(=O)[C@H](CC(C)C)NC(=O)[C@@H]1CCCN1C(=O)[C@H](CCC(N)=O)NC(=O)[C@H](CC/C=C/S(C)(=O)=O)NC(=O)OCc1ccccc1` [Compound 3.2.1, N^α-benzyloxycarbonyl-{[(E)-(L)-2-amino-6-methanesulfonyl]-hex-5-enyl}-L-glutaminyl-L-prolinyl-L-leucine methyl ester], the values for the IC50 (in experiment [1] (Table 2); at FXIII (Table 2); against TG1 (Table 2)) were 0.054 µM, over 100 µM and 0.25 µM, respectively.

With `COC(=O)[C@H](CC(C)C)NC(=O)[C@@H]1CCCN1C(=O)[C@H](CCC(N)=O)NC(=O)[C@H](CC/C=C/S(=O)(=O)N(C)C)NC(=O)OCc1ccccc1` [Compound 3.2.2], the IC50 is 0.76 µM in experiment [1] (Table 2), over 100 µM at FXIII (Table 2) and 1.3 µM on TG1 (Table 2).

For `COC(=O)[C@H](CC(C)C)NC(=O)[C@@H]1CCCN1C(=O)[C@H](CCC(N)=O)NC(=O)[C@H](CCC1=CC(=O)CC1)NC(=O)OCc1ccccc1` [Compound 3.2.3, N^α-benzyloxycarbonyl-[(L)-2-amino-4-(3)-oxo-cyclopent-1-enyl]-butyryl-L-glutaminyl-L-prolinyl-L-leucine methyl ester], the IC50 in experiment [1] (Table 2) is 18 µM; at FXIII (Table 2), over 100 µM; against TG1 (Table 2), 14 µM.

With `COC(=O)[C@H](CC(C)C)NC(=O)[C@@H]1CCCN1C(=O)[C@H](CCC(N)=O)NC(=O)[C@H](CC/C=C1\CCOC1=O)NC(=O)OCc1ccccc1` [Compound 3.2.4, N^α-benzyloxycarbonyl[(L)-2-amino-5-(2-oxo-dihydrofurane-(3E)-ylidene)]-pentanoyl-L-glutaminyl-L-prolinyl-L-Ieucine methyl ester], the IC50 was 8.9 µM in experiment [1] (Table 2), over 100 µM at FXIII (Table 2) and 0.4 µM against TG1 (Table 2).

`COC(=O)C(CC(C)C)NC(=O)C1CCCN1C(=O)C(CCC(N)=O)NC(=O)C(CCC=CC(=O)O)NC(=O)OCc1ccccc1` [Compound 3.2.5, N^α-benzyloxycarbonyl)-[(E)-(L)-6-amino-hept-2-ene-dicarboxylic acid]-L-glutaminyl-L-prolinyl-L-leucine methyl ester]: the IC50 in experiment [1] (Table 2) was 23 µM; against FXIII (Table 2), over 100 µM.

With `CCCCCNC(=O)/C=C/CC[C@H](NC(C)=O)C(=O)N[C@@H](CCC(N)=O)C(=O)N[C@@H](CC(=O)O)C(=O)N1CCC[C@H]1C(=O)OC` [Compound 3.2.6, Nr-acetyl-{[(E)-(L)-6.amino-hept-2-ene-dicarboxylic acid]-1-pentylamido}-L-glutaminyl-L-asparatyl-L-proline methyl ester], the IC50 in experiment [1] (Table 2) was over 100 µM; against FXIII (Table 2) it was over 100 µM; against TG1 (Table 2), 23 µM.

For the molecule `CC(C)OC(=O)C=CCCC(NC(=O)OCc1ccccc1)C(=O)NC(Cc1ccc(F)cc1)C(=O)N1CCCC1C(=O)O` [Compound 3.2.7, N^α-benzyloxycarbonyl)-{[(E)-(L)-6-amino-hept-2-ene-dicarboxylic acid]-1-isopropanoyl}-L-(p-fluoro-phenylalaninyl)-L-proline], the IC50 in experiment [1] (Table 2) was 1.5 µM; on FXIII (Table 2) it was over 100 µM; against TG1 (Table 2), 3.7 µM.

For the molecule `COC(=O)/C=C/CC[C@H](NC(=O)OCc1ccccc1)C(=O)N[C@@H](CCC(N)=O)C(=O)N1CCC[C@H]1C(=O)OC` [Compound 4, N^α-benzyloxycarbonyl-{[(E)-(L)-6-amino-hept-2-ene-dicarboxylic acid]-1-methanoyl}-L-glutaminyl-L-proline methyl ester], the 50% inhibitory concentration (IC50) was 0.35 µM in experiment [1] (Table 1) and over 50 µM on FXIII (Table 1).

`CCOC(=O)/C=C/CC[C@H](NC(=O)OCc1ccccc1)C(=O)N[C@H](C(=O)N1CCC[C@H]1C(=O)NCCC(C)C)C(C)C` [Compound 5]: the results for the IC50 (in experiment [1] (Table 1); at FXIII (Table 1)) were 0.125 µM and over 50 µM, respectively.

Consider `CCOC(=O)/C=C/CC[C@@H](C(=O)N[C@H](C(=O)N1CCC[C@H]1C(=O)OC)C(C)C)N1CCCC1=O` [Compound 6, [(E)-(L)-6-(2-oxo-pyrrolidon-1-yl)-hept-2-ene-dicarboxylic acid 1-ethanoyl]-L-valinyl-L-proline methyl ester], for which the IC50 is 15 µM in experiment [1] (Table 1) and over 50 µM on FXIII (Table 1).

A word on the IC50: it is the concentration at which inhibition is half-maximal.
